Measurements taken from patent US20130137772A1, “HYDROXYPOLYAMINE SALTS” (priority 2011, published 2013).
Several values for one entry are separate records, joined by “and”; a condition that tells them apart may be missing. Equal entries are not always repeated.

Key:
[1] = mice, three weeks after a seven day schedule; cited from earlier work
[2] = Tissue distribution and metabolism: polyamine content of kidney, liver and pancreas via HPLC; type: in vivo, Female CD-1 mice; settings: DEHSPM 18.6 mg/kg/d IP x 5 d
Protocol: The tissue distribution and metabolism of DEHSPM, (HO)2DEHSPM HCl Salt and (HO)2DEHSPM Mesylate Salt in various organs were evaluated utilizing the following protocol:
Tissue Distribution and Metabolism of DEHSPM, (HO)2DEHSPM HCl Salt and (HO)2DEHSPM Mesylate Salt
• 1) DEHSPM, (HO)2DEHSPM HCl salt, and (HO)2DEHSPM mesylate salt were dissolved in sterile normal saline; the pH was not adjusted. • 2) Female CD-1 mice were given the drugs at equimolar dosages intraperitoneally once daily for 5 days. • 3) The animals, n=3-4 per group, were euthanized 4, 8, or 24 h post-last dose. • 4) The kidney, liver, and pancreas were removed and assessed for their polyamine content via HPLC analysis. • 5) The polyamine concentration data (mean±STD) are expressed as nmol/g wet weight of tissue. SPM, spermine; SPD, spermidine; PUT, putrescine; N.D., not determined. • 6) A one-tailed t test assuming unequal variance was performed on the tissue polyamine concentration data. A value of p<0.05 was considered significant.

DEHSPM concentration ([2]; kidney, 4 h post-last dose): 428 ± 95 nmol/g wet weight of tissue
DEHSPM concentration ([2]; kidney, 8 h post-last dose): 425 ± 82 nmol/g wet weight of tissue
DEHSPM concentration ([2]; kidney, 24 h post-last dose): 260 ± 19 nmol/g wet weight of tissue
DEHSPM concentration ([2]; liver, 4 h post-last dose): 148 ± 46 nmol/g wet weight of tissue
DEHSPM concentration ([2]; liver, 8 h post-last dose): 144 ± 7 nmol/g wet weight of tissue
DEHSPM concentration ([2]; liver, 24 h post-last dose): 79 ± 10 nmol/g wet weight of tissue
DEHSPM concentration ([2]; pancreas, 4 h post-last dose): 330 ± 37 nmol/g wet weight of tissue
DEHSPM concentration ([2]; pancreas, 8 h post-last dose): 339 ± 59 nmol/g wet weight of tissue
DEHSPM concentration ([2]; pancreas, 24 h post-last dose): 284 ± 50 nmol/g wet weight of tissue
SMILES: CCNCCCCNCCCCNCCCCNCC [DEHSPM, Diethylhomospermine, reference compound]
drug administered remaining in the liver and kidney as drug or metabolites [1]: 35%
drug remaining in the animal in the form of HSPM [1]: 90%
PUT concentration ([2]; kidney, 4 h post-last dose): 0 ± 0 nmol/g wet weight of tissue
SPD concentration ([2]; kidney, 4 h post-last dose): 270 ± 61 nmol/g wet weight of tissue
SPM concentration ([2]; kidney, 4 h post-last dose): 243 ± 49 nmol/g wet weight of tissue
PUT concentration ([2]; kidney, 8 h post-last dose): 0 ± 0 nmol/g wet weight of tissue
SPD concentration ([2]; kidney, 8 h post-last dose): 159 ± 4 nmol/g wet weight of tissue
SPM concentration ([2]; kidney, 8 h post-last dose): 240 ± 52 nmol/g wet weight of tissue
PUT concentration ([2]; kidney, 24 h post-last dose): 0 ± 0 nmol/g wet weight of tissue
SPD concentration ([2]; kidney, 24 h post-last dose): 150 ± 37 nmol/g wet weight of tissue
SPM concentration ([2]; kidney, 24 h post-last dose): 223 ± 61 nmol/g wet weight of tissue
PUT concentration ([2]; liver, 4 h post-last dose): 0 ± 0 nmol/g wet weight of tissue
SPD concentration ([2]; liver, 4 h post-last dose): 540 ± 77 nmol/g wet weight of tissue
SPM concentration ([2]; liver, 4 h post-last dose): 764 ± 49 nmol/g wet weight of tissue
PUT concentration ([2]; liver, 8 h post-last dose): 0 ± 0 nmol/g wet weight of tissue
SPD concentration ([2]; liver, 8 h post-last dose): 710 nmol/g wet weight of tissue and 710 ± 132 nmol/g wet weight of tissue
SPM concentration ([2]; liver, 8 h post-last dose): 899 ± 40 nmol/g wet weight of tissue
PUT concentration ([2]; liver, 24 h post-last dose): 21 ± 15 nmol/g wet weight of tissue
SPD concentration ([2]; liver, 24 h post-last dose): 578 nmol/g wet weight of tissue and 578 ± 150 nmol/g wet weight of tissue
SPM concentration ([2]; liver, 24 h post-last dose): 809 ± 45 nmol/g wet weight of tissue
PUT concentration ([2]; pancreas, 4 h post-last dose): 43 ± 10 nmol/g wet weight of tissue
SPD concentration ([2]; pancreas, 4 h post-last dose): 6054 nmol/g wet weight of tissue and 6054 ± 878 nmol/g wet weight of tissue
SPM concentration ([2]; pancreas, 4 h post-last dose): 1000 nmol/g wet weight of tissue and 1000 ± 124 nmol/g wet weight of tissue
PUT concentration ([2]; pancreas, 8 h post-last dose): 66 ± 33 nmol/g wet weight of tissue
SPD concentration ([2]; pancreas, 8 h post-last dose): 5789 nmol/g wet weight of tissue and 5789 ± 339 nmol/g wet weight of tissue
SPM concentration ([2]; pancreas, 8 h post-last dose): 1033 nmol/g wet weight of tissue and 1033 ± 290 nmol/g wet weight of tissue
PUT concentration ([2]; pancreas, 24 h post-last dose): 62 ± 29 nmol/g wet weight of tissue
SPD concentration ([2]; pancreas, 24 h post-last dose): 5807 nmol/g wet weight of tissue and 5807 ± 262 nmol/g wet weight of tissue
SPM concentration ([2]; pancreas, 24 h post-last dose): 1146 nmol/g wet weight of tissue and 1146 ± 107 nmol/g wet weight of tissue
